Assay results published in ChEMBL document CHEMBL1201861, “Genomics of Drug Sensitity in Cancer screening data, Wellcome Trust Sanger Institute”.

What was measured:
Test in all cases: cells
Type in all cases: functional, cell-based
Conditions in all cases: Homo sapiens
COR-L105 = test system: COR-L105;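 further: cell growth inhibition determined with a viability assay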
Description: SANGER: Inhibition of human COR-L105 cell growth in a cell viability assay.

CP50-MEL-B = test system: CP50-MEL-B;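 further: growth inhibition of the human cell line, measured with a cell viability read-out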
Description: SANGER: Inhibition of human CP50-MEL-B cell growth in a cell viability assay.

DBTRG-05MG = test system: DBTRG-05MG;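 further: cell viability assay measuring growth inhibition of human DBTRG-05MG cells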
Description: SANGER: Inhibition of human DBTRG-05MG cell growth in a cell viability assay.

DMS-273 = test system: DMS-273
Description: SANGER: Inhibition of human DMS-273 cell growth in a cell viability assay.

DOK = test system: DOK;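 further: cell viability assay read-out, values reflect inhibition of cell growth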
Description: SANGER: Inhibition of human DOK cell growth in a cell viability assay.

FTC-133 = test system: FTC-133
G-361 = test system: G-361
HCC1395 = test system: HCC1395;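 further: growth inhibition of HCC1395 cells, read out by a cell viability assay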
Description: SANGER: Inhibition of human HCC1395 cell growth in a cell viability assay.

Hs-578T = test system: Hs-578T
Description: SANGER: Inhibition of human Hs-578-T cell growth in a cell viability assay.

KYSE-140 = test system: KYSE-140;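 further: cell viability assay measuring growth inhibition in human KYSE-140 cells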
Description: SANGER: Inhibition of human KYSE-140 cell growth in a cell viability assay.

LN-405 = test system: LN-405
Description: SANGER: Inhibition of human LN-405 cell growth in a cell viability assay.

LU-99A = test system: LU-99A;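 further: growth inhibition of LU-99A cells, read out with a cell viability assay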
Description: SANGER: Inhibition of human LU-99A cell growth in a cell viability assay.

MDA-MB-453 = test system: MDA-MB-453
Description: SANGER: Inhibition of human MDA-MB-453 cell growth in a cell viability assay.

MHH-ES-1 = test system: MHH-ES-1;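 further: cell growth inhibition measured by a cell viability assay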
Description: SANGER: Inhibition of human MHH-ES-1 cell growth in a cell viability assay.

MKN-28 = test system: MKN-28;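 further: cell viability assay read-out, IC50 reflects suppression of growth of human MKN-28 cells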
Description: SANGER: Inhibition of human MKN28 cell growth in a cell viability assay.

MKN-7 = test system: MKN-7;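 further: growth inhibition of MKN-7 cells, read out with a cell viability assay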
Description: SANGER: Inhibition of human MKN7 cell growth in a cell viability assay.

NCI-H1573 = test system: NCI-H1573;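 further: growth inhibition of NCI-H1573 cells, read out with a cell viability assay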
Description: SANGER: Inhibition of human NCI-H1573 cell growth in a cell viability assay.

NCI-H1651 = test system: NCI-H1651;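 further: Read-out is a cell viability assay, with IC50 expressing inhibition of NCI-H1651 cell growth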
Description: SANGER: Inhibition of human NCI-H1651 cell growth in a cell viability assay.

NCI-H1993 = test system: NCI-H1993;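 further: growth inhibition of the cancer cell line, assessed with a cell viability assay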
Description: SANGER: Inhibition of human NCI-H1993 cell growth in a cell viability assay.

NCI-H2030 = test system: NCI-H2030;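 further: growth inhibition of human NCI-H2030 cells, read out by a cell viability assay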
Description: SANGER: Inhibition of human NCI-H2030 cell growth in a cell viability assay.

NCI-H2342 = test system: NCI-H2342;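 further: growth inhibition of the cancer cell line, determined with a cell viability assay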
Description: SANGER: Inhibition of human NCI-H2342 cell growth in a cell viability assay.

NCI-H520 = test system: NCI-H520;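 further: growth inhibition of NCI-H520 cells, measured by a cell viability assay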
Description: SANGER: Inhibition of human NCI-H520 cell growth in a cell viability assay.

NCI-H661 = test system: NCI-H661;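 further: cell viability assay read-out, IC50 being the concentration that inhibits growth of the cells by half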
Description: SANGER: Inhibition of human NCI-H661 cell growth in a cell viability assay.

NUGC-3 = test system: NUGC-3;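 further: growth inhibition of human NUGC-3 cells, read out with a cell viability assay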
Description: SANGER: Inhibition of human NUGC-3 cell growth in a cell viability assay.

OE33 = test system: OE33;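 further: growth inhibition of human OE33 cells, measured by a cell viability assay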
Description: SANGER: Inhibition of human OE33 cell growth in a cell viability assay.

Panc1005 = test system: Panc1005;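 further: growth inhibition of human PANC-10-05 cells, measured by a cell viability assay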
Description: SANGER: Inhibition of human PANC-10-05 cell growth in a cell viability assay.

SBC-5 = test system: SBC-5;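 further: cell viability assay read-out, IC50 is the concentration that inhibits growth of the cells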
Description: SANGER: Inhibition of human SBC-5 cell growth in a cell viability assay.

SK-MEL-28 = test system: SK-MEL-28;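 further: growth inhibition of human SK-MEL-28 cells, read out with a cell viability assay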
Description: SANGER: Inhibition of human SK-MEL-28 cell growth in a cell viability assay.

SKG-IIIa = test system: SKG-IIIa;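 further: cell growth inhibition, read out with a cell viability assay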
Description: SANGER: Inhibition of human SKG-IIIa cell growth in a cell viability assay.

SW626 = test system: SW626;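 further: growth inhibition of SW626 cells, measured with a cell viability assay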
Description: SANGER: Inhibition of human SW626 cell growth in a cell viability assay.

SW837 = test system: SW837;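 further: growth inhibition of SW837 cells, determined with a cell viability assay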
Description: SANGER: Inhibition of human SW837 cell growth in a cell viability assay.

T-24 = test system: T-24;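 further: growth inhibition of T-24 cells, read out with a cell viability assay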
Description: SANGER: Inhibition of human T-24 cell growth in a cell viability assay.

T98G = test system: T98G;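 further: growth inhibition of T98G cells, read out by a cell viability assay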
Description: SANGER: Inhibition of human T98G cell growth in a cell viability assay.

786-0 = test system: 786-0
Description: SANGER: Inhibition of human 786-0 cell growth in a cell viability assay.

8505C = test system: 8505C
Description: SANGER: Inhibition of human 8505C cell growth in a cell viability assay.

A-375 = test system: A-375;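 further: growth inhibition of A375 cells, read out with a cell viability assay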
Description: SANGER: Inhibition of human A375 cell growth in a cell viability assay.

A-427 = test system: A-427;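 further: growth inhibition of human A-427 cells, read out by a cell viability assay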
Description: SANGER: Inhibition of human A427 cell growth in a cell viability assay.

A-431 = test system: A-431;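 further: growth inhibition of A-431 cells, determined with a cell viability read-out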
Description: SANGER: Inhibition of human A431 cell growth in a cell viability assay.

A673 = test system: A673;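 further: growth inhibition of human A673 cells, read out through a cell viability assay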
Description: SANGER: Inhibition of human A673 cell growth in a cell viability assay.

BHT-101 = test system: BHT-101
Description: SANGER: Inhibition of human BHT-101 cell growth in a cell viability assay.

BHY = test system: BHY;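 further: cell growth inhibition read out by a viability assay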
Description: SANGER: Inhibition of human BHY cell growth in a cell viability assay.

CAL-33 = test system: CAL-33;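 further: growth inhibition of CAL-33 cells, read out with a cell viability assay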
Description: SANGER: Inhibition of human CAL-33 cell growth in a cell viability assay.

CAL-54 = test system: CAL-54;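 further: growth inhibition of CAL-54 cells, read out by a viability measurement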
Description: SANGER: Inhibition of human CAL-54 cell growth in a cell viability assay.

WM-115 = test system: WM-115
Description: SANGER: Inhibition of human WM-115 cell growth in a cell viability assay.

CHL-1 = test system: CHL-1;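 further: cell growth inhibition, read out with a cell viability assay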
Description: SANGER: Inhibition of human CHL-1 cell growth in a cell viability assay.

C[C@]12O[C@H](C[C@]1(O)CO)n1c3ccccc3c3c4c(c5c6ccccc6n2c5c31)CNC4=O [LESTAURTINIB]
IC50 (COR-L105): > 2000 nM
IC50 (CP50-MEL-B): 632 nM
IC50 (DBTRG-05MG): > 2000 nM
IC50 (DMS-273): > 2000 nM
IC50 (DOK): 297 nM
IC50 (FTC-133): 158 nM
IC50 (G-361): 221 nM
IC50 (HCC1395): > 2000 nM
IC50 (Hs-578T): 997 nM
IC50 (KYSE-140): 449 nM
IC50 (LN-405): > 2000 nM
IC50 (LU-99A): 1010 nM
IC50 (MDA-MB-453): 1910 nM
IC50 (MHH-ES-1): 321 nM
IC50 (MKN-28): > 2000 nM
IC50 (MKN-7): 1810 nM
IC50 (NCI-H1573): 686 nM
IC50 (NCI-H1651): > 2000 nM
IC50 (NCI-H1993): > 2000 nM
IC50 (NCI-H2030): 1320 nM
IC50 (NCI-H2342): > 2000 nM
IC50 (NCI-H520): 203 nM
IC50 (NCI-H661): > 2000 nM
IC50 (NUGC-3): > 2000 nM
IC50 (OE33): > 2000 nM
IC50 (Panc1005): > 2000 nM
IC50 (SBC-5): 254 nM
IC50 (SK-MEL-28): 327 nM
IC50 (SKG-IIIa): 255 nM
IC50 (SW626): 1130 nM
IC50 (SW837): > 2000 nM
IC50 (T-24): > 2000 nM
IC50 (T98G): 327 nM
IC50 (786-0): 1560 nM
IC50 (8505C): 302 nM
IC50 (A-375): 332 nM
IC50 (A-427): 23.4 nM
IC50 (A-431): 387 nM
IC50 (A673): 718 nM
IC50 (BHT-101): 464 nM
IC50 (BHY): 872 nM
IC50 (CAL-33): 730 nM
IC50 (CAL-54): 178 nM
IC50 (WM-115): > 2000 nM
IC50 (CHL-1): 13.5 nM

CCCS(=O)(=O)Nc1ccc(F)c(C(=O)c2c[nH]c3ncc(Cl)cc23)c1F [PLX-4720]
IC50 (COR-L105): > 10000 nM
IC50 (CP50-MEL-B): 298 nM
IC50 (DBTRG-05MG): 4530 nM
IC50 (DMS-273): > 10000 nM
IC50 (DOK): > 10000 nM
IC50 (FTC-133): > 10000 nM
IC50 (G-361): 346 nM
IC50 (HCC1395): > 10000 nM
IC50 (Hs-578T): > 10000 nM
IC50 (KYSE-140): > 10000 nM
IC50 (LN-405): > 10000 nM
IC50 (LU-99A): > 10000 nM
IC50 (MDA-MB-453): > 10000 nM
IC50 (MHH-ES-1): > 10000 nM
IC50 (MKN-28): > 10000 nM
IC50 (MKN-7): > 10000 nM
IC50 (NCI-H1573): > 10000 nM
IC50 (NCI-H1651): > 10000 nM
IC50 (NCI-H1993): > 10000 nM
IC50 (NCI-H2030): > 10000 nM
IC50 (NCI-H2342): > 10000 nM
IC50 (NCI-H520): > 10000 nM
IC50 (NCI-H661): > 10000 nM
IC50 (NUGC-3): > 10000 nM
IC50 (OE33): > 10000 nM
IC50 (Panc1005): > 10000 nM
IC50 (SBC-5): > 10000 nM
IC50 (SK-MEL-28): 1050 nM
IC50 (SKG-IIIa): > 10000 nM
IC50 (SW626): > 10000 nM
IC50 (SW837): > 10000 nM
IC50 (T-24): > 10000 nM
IC50 (T98G): > 10000 nM
IC50 (786-0): > 10000 nM
IC50 (8505C): > 10000 nM
IC50 (A-375): 674 nM
IC50 (A-427): > 10000 nM
IC50 (A-431): > 10000 nM
IC50 (A673): > 10000 nM
IC50 (BHT-101): 707 nM
IC50 (BHY): > 10000 nM
IC50 (CAL-33): > 10000 nM
IC50 (CAL-54): > 10000 nM
IC50 (WM-115): 887 nM
IC50 (CHL-1): 5980 nM

C[C@]1(c2nc3c(C(N)=O)cccc3[nH]2)CCCN1 [VELIPARIB]
IC50 (COR-L105): > 5000 nM
IC50 (CP50-MEL-B): > 5000 nM
IC50 (DBTRG-05MG): > 5000 nM
IC50 (DMS-273): > 5000 nM
IC50 (DOK): > 5000 nM
IC50 (FTC-133): > 5000 nM
IC50 (G-361): > 5000 nM
IC50 (HCC1395): > 5000 nM
IC50 (Hs-578T): > 5000 nM
IC50 (KYSE-140): > 5000 nM
IC50 (LN-405): > 5000 nM
IC50 (LU-99A): > 5000 nM
IC50 (MDA-MB-453): > 5000 nM
IC50 (MHH-ES-1): > 5000 nM
IC50 (MKN-28): > 5000 nM
IC50 (MKN-7): > 5000 nM
IC50 (NCI-H1573): > 5000 nM
IC50 (NCI-H1651): > 5000 nM
IC50 (NCI-H1993): > 5000 nM
IC50 (NCI-H2030): > 5000 nM
IC50 (NCI-H2342): > 5000 nM
IC50 (NCI-H520): > 5000 nM
IC50 (NCI-H661): > 5000 nM
IC50 (NUGC-3): > 5000 nM
IC50 (OE33): > 5000 nM
IC50 (Panc1005): > 5000 nM
IC50 (SBC-5): > 5000 nM
IC50 (SK-MEL-28): > 5000 nM
IC50 (SKG-IIIa): > 5000 nM
IC50 (SW626): > 5000 nM
IC50 (SW837): > 5000 nM
IC50 (T-24): > 5000 nM
IC50 (T98G): > 5000 nM
IC50 (786-0): > 5000 nM
IC50 (8505C): > 5000 nM
IC50 (A-375): > 5000 nM
IC50 (A-427): > 5000 nM
IC50 (A-431): > 5000 nM
IC50 (A673): > 5000 nM
IC50 (BHT-101): > 5000 nM
IC50 (BHY): > 5000 nM
IC50 (CAL-33): > 5000 nM
IC50 (CAL-54): > 5000 nM
IC50 (WM-115): > 5000 nM
IC50 (CHL-1): > 5000 nM

CC[C@]1(O)C[C@@H]2CN(CCc3c([nH]c4ccccc34)[C@@](C(=O)OC)(c3cc4c(cc3OC)N(C)[C@H]3[C@@](O)(C(=O)OC)[C@H](OC(C)=O)[C@]5(CC)C=CCN6CC[C@]43[C@@H]65)C2)C1 [VINBLASTINE]
IC50 (COR-L105): 65.7 nM
IC50 (CP50-MEL-B): 13.1 nM
IC50 (DBTRG-05MG): > 100 nM
IC50 (DMS-273): 3.4 nM
IC50 (DOK): 4.2 nM
IC50 (FTC-133): 8.44 nM
IC50 (G-361): > 100 nM
IC50 (HCC1395): 29.2 nM
IC50 (Hs-578T): 17.3 nM
IC50 (KYSE-140): 44.9 nM
IC50 (LN-405): 12.4 nM
IC50 (LU-99A): 20.8 nM
IC50 (MDA-MB-453): 3.29 nM
IC50 (MHH-ES-1): 5.13 nM
IC50 (MKN-28): 2.7 nM
IC50 (MKN-7): 76.7 nM
IC50 (NCI-H1573): 30.7 nM
IC50 (NCI-H1651): 23 nM
IC50 (NCI-H1993): > 100 nM
IC50 (NCI-H2030): 27.7 nM
IC50 (NCI-H2342): > 100 nM
IC50 (NCI-H520): 30.1 nM
IC50 (NCI-H661): 8.05 nM
IC50 (NUGC-3): 3.46 nM
IC50 (OE33): 28.6 nM
IC50 (Panc1005): 42.8 nM
IC50 (SBC-5): 7.47 nM
IC50 (SK-MEL-28): 17 nM
IC50 (SKG-IIIa): 17.2 nM
IC50 (SW626): 23.2 nM
IC50 (SW837): > 100 nM
IC50 (T-24): 5.1 nM
IC50 (T98G): 11.4 nM
IC50 (786-0): 15.6 nM
IC50 (8505C): 3.11 nM
IC50 (A-375): 23.5 nM
IC50 (A-427): 12.5 nM
IC50 (A-431): > 100 nM
IC50 (A673): 6.88 nM
IC50 (BHT-101): 31.4 nM
IC50 (BHY): 15.3 nM
IC50 (CAL-33): 6.18 nM
IC50 (CAL-54): 60.6 nM
IC50 (WM-115): 10.2 nM
IC50 (CHL-1): 12 nM
